Test results taken from article PMC2192625 (The Journal of Experimental Medicine, 1996).
Like-named read-outs stand apart in the source and are kept apart here. Residues, ends and D or L forms follow the SMILES beside them.

Legend:
[1] = target: HLA-DRA-IEα/HLA-DRB1*0401-IEβ chimeric molecules purified from transfected M12.C3 cells (Homo sapiens, UniProt P01903+P01911, A100K/A169T/F76Y/I96L/K127E/L162R/M171V/N62H/P40V/Q125Y/R42H/S133A/S149N/S66Y/V115G/V209L/W38E); assay: biochemical; assay type: binding, human/mouse chimeric
[2] = target: HLA-DRB1*0401 molecules purified from Priess cells (Homo sapiens, UniProt P01903+P01911, A100K/A169T/F76Y/I96L/K127E/L162R/M171V/N62H/P40V/Q125Y/R42H/S133A/S149N/S66Y/V115G/V209L/W38E); assay: biochemical; assay type: binding
[3] = system: experimental allergic encephalomyelitis in HLA-DRA-IEα/HLA-DRB1*0401-IEβ Tg mice; assay type: in vivo, mouse

SMILES: CC[C@H](C)[C@H](NC(=O)[C@H](CO)NC(=O)[C@H](CCC(N)=O)NC(=O)[C@H](CS)NC(=O)[C@@H](NC(=O)[C@@H](NC(=O)[C@H](Cc1c[nH]c2ccccc12)NC(=O)[C@@H](NC(=O)[C@H](CC(N)=O)NC(=O)[C@H](Cc1ccccc1)NC(=O)[C@H](Cc1ccc(O)cc1)NC(=O)[C@@H](NC(=O)[C@@H](N)Cc1ccc(O)cc1)[C@@H](C)CC)[C@@H](C)O)[C@@H](C)O)[C@@H](C)O)C(=O)N[C@@H](C)C(=O)N[C@@H](Cc1ccccc1)C(=O)N1CCC[C@H]1C(=O)N[C@@H](CO)C(=O)N[C@@H](CCCCN)C(=O)O [PLP175-192] (H-YIYFNTWTTCQSIAFPSK-OH)
- IC50 [1]: 169 nM
- IC50 [2]: 187 nM

SMILES: CSCC[C@H](NC(=O)[C@H](C)NC(=O)[C@H](CCCNC(=N)N)NC(=O)[C@@H](N)Cc1ccc(O)cc1)C(=O)N[C@@H](C)C(=O)N[C@@H](CO)C(=O)N[C@@H](CC(C)C)C(=O)O [Peptide S6-m1-7] (H-YRAMASL-OH)
- IC50 [1]: 53 nM
- IC50 [2]: 43 nM

SMILES: CC[C@H](C)[C@H](NC(=O)[C@H](CC(N)=O)NC(=O)[C@H](CCCCN)NC(=O)[C@H](Cc1ccccc1)NC(=O)[C@H](Cc1ccccc1)NC(=O)[C@H](Cc1c[nH]cn1)NC(=O)[C@@H](NC(=O)[C@@H](N)C(C)C)C(C)C)C(=O)N[C@H](C(=O)N[C@H](C(=O)N1CCC[C@H]1C(=O)N[C@@H](CCCNC(=N)N)C(=O)N[C@H](C(=O)N1CCC[C@H]1C(=O)N1CCC[C@H]1C(=O)N1CCC[C@H]1C(=O)N[C@@H](CO)C(=O)N[C@@H](CCC(N)=O)C(=O)NCC(=O)N[C@@H](CCCCN)C(=O)O)[C@@H](C)O)[C@@H](C)O)C(C)C [MBP87-106] (H-VVHFFKNIVTPRTPPPSQGK-OH; N-terminus and C-terminus assumed)
- Severity: number of mice with clinical score 0 (no disease) ([3]; Non-Tg mice, n = 5, Table 2): 5
- EAE developed (in words) ([3]; Tg mice): only a mild EAE
- Severity: number of mice with clinical score 0 (no disease) ([3]; Tg mice, n = 5, Table 2): 2
- Severity: number of mice with clinical score 1 (tail atony) ([3]; Tg mice, n = 5, Table 2): 2
- Severity: number of mice with clinical score 3 (hind-limb paralysis) ([3]; Tg mice, n = 5, Table 2): 1

SMILES: CSCC[C@H](NC(=O)[C@H](C)NC(=O)[C@H](CCCNC(=N)N)NC(=O)[C@@H](N)Cc1ccc(O)cc1)C(=O)N[C@@H](C)C(=O)N[C@@H](C)C(=O)N[C@@H](CC(C)C)C(=O)O [Peptide A6-m1-7] (H-YRAMAAL-OH)
- IC50 [1]: 530 nM
- IC50 [2]: 410 nM

SMILES: CSCC[C@H](NC(=O)[C@H](C)NC(=O)[C@H](CCCNC(=N)N)NC(=O)[C@@H](N)Cc1ccc(O)cc1)C(=O)N[C@@H](C)C(=O)N[C@H](C(=O)N[C@@H](CC(C)C)C(=O)O)[C@@H](C)O [m 1-7] (H-YRAMATL-OH)
- IC50 [1]: 130 nM
- IC50 [2]: 120 nM
